Source: patent publication US20230338310A1, “ANTI-VIRAL THERAPY” (priority 2020, published 2023)
In brackets after ≈: the same amount, converted by molar mass. Entries after “also recorded” stand apart in the source; their conditions may differ.

How the values were obtained:
[1] = test system: hCoV 229E; assay: Immunoperoxidase assay (TCID50/pfu) and microscopic examination of hCoV 229E-infected A549 lung epithelial cells; type: cell-based, human coronavirus 229E (ATCC VR/740) in human A549 cells
[2] = test system: hCoV 229E; assay: Immunoperoxidase assay (TCID50/pfu) and microscopic examination of hCoV 229E-infected MRC-5 lung fibroblast cells; type: cell-based, human coronavirus 229E (ATCC VR/740) in human MRC-5 cells; conditions: MRC-5 cells
[3] = test system: IL-6; assay: IL-6 response of A549 airway epithelial cells infected with human coronavirus 229E (IL-6 Duoset immunoassay); type: cell-based; conditions: 10^3 dilution of stock HCoV 229E, single doses of 2 or 10 mg/L, 20 h at 37° C., one-way ANOVA and Tukey
[4] = test system: IFNβ; assay: IFNβ response of A549 airway epithelial cells infected with human coronavirus 229E (IFN Beta Quantikine kit); type: cell-based; conditions: 10^3 dilution of stock HCoV 229E, single dose of 10 mg/L, 20 h at 37° C., none detected with virus alone
[5] = target: T1, glycine decarboxylase (Homo sapiens, UniProt P23378); assay: Glycine utilisation by MRC-5 fibroblasts (fluorometric glycine assay of supernatants); type: cell-based; conditions: 10 mg/L cysteamine, 4 h, glycine 300 μM, insulin 10 mg/L
T1 construct: endogenous in cells; host or cells: MRC-5 airway fibroblast cells
T1 sequence (P23378 36-1020): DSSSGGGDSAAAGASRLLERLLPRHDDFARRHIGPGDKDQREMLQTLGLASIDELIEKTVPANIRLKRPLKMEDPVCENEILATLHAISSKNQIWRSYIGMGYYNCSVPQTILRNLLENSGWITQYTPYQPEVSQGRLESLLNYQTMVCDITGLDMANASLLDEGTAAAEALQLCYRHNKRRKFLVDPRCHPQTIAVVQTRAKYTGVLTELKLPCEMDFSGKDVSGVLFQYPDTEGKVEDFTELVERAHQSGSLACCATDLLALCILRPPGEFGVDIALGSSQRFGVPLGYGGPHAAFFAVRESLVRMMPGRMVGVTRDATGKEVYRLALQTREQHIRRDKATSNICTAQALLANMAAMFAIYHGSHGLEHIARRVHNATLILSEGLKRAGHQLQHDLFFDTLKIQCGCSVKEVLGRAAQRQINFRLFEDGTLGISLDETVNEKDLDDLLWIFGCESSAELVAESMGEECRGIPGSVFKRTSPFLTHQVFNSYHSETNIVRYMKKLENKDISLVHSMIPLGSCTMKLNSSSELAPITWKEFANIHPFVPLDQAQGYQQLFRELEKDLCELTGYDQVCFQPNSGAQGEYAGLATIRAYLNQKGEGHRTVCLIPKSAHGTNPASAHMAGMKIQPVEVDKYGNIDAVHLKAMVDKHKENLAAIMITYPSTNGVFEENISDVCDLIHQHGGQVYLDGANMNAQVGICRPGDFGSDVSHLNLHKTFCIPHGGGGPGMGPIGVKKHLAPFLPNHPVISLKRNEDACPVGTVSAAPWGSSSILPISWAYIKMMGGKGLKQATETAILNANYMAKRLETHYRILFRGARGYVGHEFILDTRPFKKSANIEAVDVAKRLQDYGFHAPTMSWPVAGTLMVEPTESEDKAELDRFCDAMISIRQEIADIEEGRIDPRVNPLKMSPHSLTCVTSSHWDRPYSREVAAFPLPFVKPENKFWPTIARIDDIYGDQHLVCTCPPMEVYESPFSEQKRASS
Experimental: MRC-5 airway fibroblast cells were grown to 90% confluence in 2×12-well plates in EMEM+10% FBS. Cell culture media was replaced with:
Plate 1 • 1. 3×1 ml media alone (EMEM+10% FBS) • 2. 3×1 ml media+insulin (10 mg/L) • 3. 3×1 ml media+added glycine (300 μM) • 4. 3×1 ml media+glycine+insulin
As above, but with the addition of cysteamine to a final concentration of 10 mg/L Cells were then incubated at 37° C. and 5% C02 for 4 h. After incubation cell supernatants were harvested and transferred to labelled cryotubes and stored at −80° C. prior to assessment of glycine content. Insulin strongly stimulates glycine utilisation via glycine decarboxylase.
The supernatants were thawed prior to determining the glycine concentration using the fluorometric glycine assay kit from Abcam (Ab211100).
Manufacturer's instructions were followed and fluorometric assessment of glycine concentration in supernatants and standards was performed on the Biotek Synergy plate reader using 96-well black-walled plates at 535/587 nm (ex/em).

[6] = test system: hCoV 229E; assay: qPCR of hCoV 229E M protein gene copies in supernatant of infected A549 lung epithelial cells; type: cell-based, human coronavirus 229E in human A549 cells; conditions: 1 or 2 mg/L daily until 5th day, virus dilutions 10^-3 to 10^-5
Experimental: The effect of treatment of coronavirus-infected pulmonary cells with cysteamine was studied using A549 (sample obtained from deposit, deposited under ATCC CCL-185) being a human lung epithelial cell line. Prior to viral challenge A549 cells were grown at 37° C. in 5% CO2 atmosphere in growth media F-12 with Kaighn's modification+10% FBS +pen-strep [F-12K]) to 70-80% confluency in F12-K in tissue-culture-treated 96-well plates. Immediately prior to viral challenge, cells were washed in Hanks balanced salt solution and media was replaced with 100 μl challenge medium per well (F-12K) which contained 1% serum. […] Quantitative (real-time) polymerase chain reaction (qPCR) was carried out using PrecisionPLUS qPCR Master Mix (PrimerDesign) and forward and reverse oligonucleotides (229E Sense & 229E Antisense) specific to the hCoV 229E M protein gene. Amplification was carried out using a MiniOpticon Real-Time PCR system (Bio-Rad) and data was analysed using Opticon Monitor software (Bio-Rad). Analysed samples had been exposed to 10^−3 (1.12×10^12 pfu/ml), 10^−4 (1.12×10^11 pfu/ml) and 10^−5 (1.12×10^10 pfu/ml) of hCoV 229E and conducted from quadruplicate technical replicates. The number of copies of the 229E M protein gene were determined from a standard curve containing known number of copies of the 229E M protein gene.

[7] = test system: SARS-CoV-2 (SARS-CoV-2-CVR-Gla-1); assay: SARS-CoV-2 cytopathology (CPE) assay in Vero E6 MESO cells; type: cell-based
[8] = 14 days of cysteamine therapy adjunct to standard of care therapy; cited from earlier work
[9] = 2 mg/L daily for 5 days, all virus concentrations of the study

NCCS [cysteamine, 2-Aminoethanethiol]
pfu/ml in wells infected with hCoV 229E ([1]; 1 mg/L cysteamine once a day for 5 days (untreated control 2.21 × 10^14/ml)): 3.94 × 10^15/ml pfu/ml
viral load (pfu/ml) relative to control without cysteamine ([1]; 2 mg/L): can reduce viral load
pfu/ml in wells infected with hCoV 229E ([1]; 2 mg/L cysteamine once a day for 5 days (untreated control 2.21 × 10^14/ml)): 7 × 10^9/ml pfu/ml
protection against infection with hCoV 229E [1, 9]: confer protection against infection
viral load (pfu/ml) relative to control without cysteamine ([2]; 2 mg/L): can reduce viral load
protection against infection with hCoV 229E [2, 9]: confer protection against infection
cell monolayer integrity by microscopic examination ([2]; day 4, 2 mg/L cysteamine, untreated cells destroyed at 10^-4 to 10^-7 viral dilution): not seen at all in any of the cysteamine treated cells; also recorded: visible intact monolayer
IL-6 secretion compared with viral infection alone [3]: significantly reduced IL-6 secretion
IFNβ response [4]: IFNβ is detected
insulin-driven utilisation of exogenous glycine [5]: blocked
viral load as number of copies of the 229E M protein gene [6]: reduces viral load
IC50 ([7]; Severe acute respiratory syndrome coronavirus 2, Vero C1008, 72 h, read-out: IC50 (CPE induced by SARS-CoV-2)): 21.4 µg/mL (≈ 277 µM)
CPE (Cytopathology) induced by SARS-CoV-2 ([7]; Vero E6 MESO cells): reduced the CPE
protection of the cell monolayer from SARS-CoV-2 CPE ([7]; Vero E6 MESO cells, 128 mg/L, 72 hours post-infection and later): almost complete protection
protection of the cell monolayer from SARS-CoV-2 CPE ([7]; Vero E6 MESO cells, therapeutically-achievable doses, 72 hours post-infection): modest
CRP levels versus SOCT alone [8]: significantly reduced
WBC levels versus SOCT alone [8]: significantly reduced
